Data on ten compounds can be found in ChEMBL document CHEMBL1201862, “PubChem BioAssay data set” (2004).

Among the test systems are A498; A549; COLO 205; DU-145; Hs-578T; KM12; LOX IMVI; MCF7; MDA-MB-231; NCI-H226; OVCAR-5; OVCAR-8; RXF 393; SK-MEL-28; SK-MEL-2; SNB-19; SR; TK-10; SK-MEL-5; HCC 2998.
What all share (experiment): growth of human tumour cells (NCI), 48 h

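A five-concentration, 48-hour dose response in 96-well plates underlies each endpoint, interpolated linearly between surrounding concentrations. GI50 is the concentration that inhibits growth by half.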 Calls of active or inactive are those of the source. Cut-off read from the data, not from the text of the source: active = GI50 up to about 1.1 µM and inactive = higher. *1 amine or outer side, *2 acyl side, *3 side chain or, on linkers, in order; H or OH if unused. Where a SMILES comes first, the peptide text is derived from it. Bridges are numbered along the chain shown (N, C = ends). [ ]: non-standard residue; d: D form. The star is where a group is joined. X36 = O=C(C(CCCCNO[*:3])N[*:1])[*:2]; Fmoc = O=C(OCC1c2ccccc2-c2ccccc21)*

Regarding `CCCNC(=O)c1cc(NC(=O)c2cc(NC(=O)/C=C/c3ccccc3)c(OC)c(OC)c2)c(OC)c(OC)c1`, the GI50 in the experiment on A498 is 11.4 µM (inactive); with A549 it was 5.64 µM (inactive); in the experiment with COLO 205 it was > 100 µM (inactive); in the experiment on DU-145, 24.8 µM (inactive); in the experiment on Hs-578T it was 1.92 µM (inactive); in the experiment on KM12, 8.28 µM (inactive). Also, the GI50 in the experiment on LOX IMVI is 2.96 µM (inactive); in the experiment with MCF7, 7.98 µM (inactive); with MDA-MB-231 it was 1.26 µM (inactive); with NCI-H226, 0.0216 µM (active); in the experiment on OVCAR-5, 12.7 µM (inactive); in the experiment on OVCAR-8 it was 4.51 µM (inactive). The GI50 was 2.42 µM (inactive) with RXF 393; 14.5 µM (inactive) in the experiment with SK-MEL-28; 7.83 µM (inactive) in the experiment with SK-MEL-2; 5.87 µM (inactive) with SNB-19; 48.9 µM (inactive) with SR; 14.8 µM (inactive) with TK-10.

As to `CSC1=N/C(=C\c2ccccc2)C(=O)N1CN1CCOCC1`, the GI50 is > 100 µM (inactive) in the experiment on A498; > 100 µM (inactive) in the experiment on A549; 54.5 µM (inactive) in the experiment on COLO 205; 96.2 µM (inactive) in the experiment on DU-145; 47.5 µM (inactive) in the experiment on Hs-578T; 93.5 µM (inactive) with KM12. In addition, the GI50 is 31.6 µM (inactive) in the experiment with LOX IMVI; 28.3 µM (inactive) in the experiment on MCF7; > 100 µM (inactive) in the experiment on MDA-MB-231; 41.6 µM (inactive) with NCI-H226; > 100 µM (inactive) in the experiment with OVCAR-5; 41.1 µM (inactive) in the experiment with OVCAR-8. Moreover, the GI50 with SK-MEL-28 was > 100 µM (inactive); with SK-MEL-2, > 100 µM (inactive); in the experiment with SK-MEL-5, 50.5 µM (inactive); with SNB-19 it was 52.5 µM (inactive); in the experiment with SR it was 43.6 µM (inactive); with TK-10 it was > 100 µM (inactive).

For the compound `COc1ncnc2c(Cl)c(C(O)c3ccccc3)c(Cl)cc12` (configuration not stated), the GI50 in the experiment with A498 was 19.7 µM (inactive); in the experiment on A549, 34.8 µM (inactive); in the experiment with COLO 205 it was 29.4 µM (inactive); with DU-145 it was 60.4 µM (inactive); with Hs-578T, 19.6 µM (inactive); in the experiment on KM12 it was 26.7 µM (inactive). For the same compound, the GI50 with LOX IMVI was 53.3 µM (inactive); in the experiment on MCF7, 31.4 µM (inactive); with MDA-MB-231, 18.6 µM (inactive); with OVCAR-5, 60.5 µM (inactive); in the experiment with OVCAR-8, 30.5 µM (inactive); in the experiment on RXF 393, 15.5 µM (inactive). Besides, the GI50 with SK-MEL-28 was 34.6 µM (inactive); with SK-MEL-2, 33.6 µM (inactive); in the experiment on SK-MEL-5, 26.2 µM (inactive); with SNB-19, 26.6 µM (inactive); with SR it was 3.5 µM (inactive); in the experiment with TK-10 it was 23 µM (inactive).

For `CN(C)CCSc1cc(-c2ccccc2)c2ccccc2n1`, the GI50 in the experiment with A498 was 16 µM (inactive); in the experiment on A549, 13.6 µM (inactive); with COLO 205, 1.97 µM (inactive); with DU-145, 15.4 µM (inactive); with Hs-578T, 10.3 µM (inactive); in the experiment on KM12, 14.3 µM (inactive). The GI50 in the experiment with LOX IMVI was 10.4 µM (inactive); in the experiment on MCF7, 13.2 µM (inactive); in the experiment with MDA-MB-231, 11.3 µM (inactive); with NCI-H226, 16.6 µM (inactive); with OVCAR-5, 13.4 µM (inactive); with OVCAR-8 it was 19.1 µM (inactive). Also, the GI50 was 3.14 µM (inactive) in the experiment with RXF 393; 4.7 µM (inactive) in the experiment with SK-MEL-28; 14.2 µM (inactive) in the experiment on SK-MEL-2; 1.63 µM (inactive) with SK-MEL-5; 13.6 µM (inactive) in the experiment with SNB-19; 13.6 µM (inactive) in the experiment with SR. Also, the GI50 in the experiment with TK-10 is 7.93 µM (inactive).

Regarding `N#CC1(C#N)C(c2ccccc2)C=CC(c2ccc([N+](=O)[O-])cc2)C1(C#N)C#N` (configuration not stated), the GI50 with A498 was 16.6 µM (inactive); in the experiment on A549 it was 17.7 µM (inactive); with COLO 205, 1.57 µM (inactive); in the experiment with DU-145 it was 14.2 µM (inactive); with HCC 2998, 19.4 µM (inactive); in the experiment with Hs-578T, 17.9 µM (inactive). Further, the GI50 was 22.1 µM (inactive) in the experiment on KM12; 2.35 µM (inactive) in the experiment with LOX IMVI; 5.98 µM (inactive) in the experiment on MCF7; 13.4 µM (inactive) in the experiment with MDA-MB-231; 17.3 µM (inactive) in the experiment with NCI-H226; 17.1 µM (inactive) with OVCAR-5. Also, the GI50 in the experiment on OVCAR-8 is 11.2 µM (inactive); in the experiment on SK-MEL-28, 15.8 µM (inactive); in the experiment on SK-MEL-2 it was 17.1 µM (inactive); with SK-MEL-5, 10.7 µM (inactive); in the experiment with SNB-19, 15.1 µM (inactive); in the experiment on SR, 2.53 µM (inactive). Moreover, in the experiment on TK-10, the GI50 was 3.65 µM (inactive).

With `CN(C)CCSS(=O)(=O)O`, the GI50 with A498, in the experiment with A549, in the experiment with COLO 205, with DU-145, in the experiment with Hs-578T and with KM12 was > 100 µM (inactive) each time. The GI50 in the experiment with LOX IMVI was 40.2 µM (inactive); in the experiment with MCF7, > 100 µM (inactive); with MDA-MB-231 it was > 100 µM (inactive); with NCI-H226, > 100 µM (inactive); in the experiment on OVCAR-5 it was > 100 µM (inactive); in the experiment with OVCAR-8, > 100 µM (inactive). Also, the GI50 in the experiment on RXF 393, in the experiment with SK-MEL-28, in the experiment on SK-MEL-2, with SK-MEL-5, in the experiment on SNB-19 and in the experiment on SR was > 100 µM (inactive) each time. In the experiment on TK-10, the GI50 was > 100 µM (inactive).

As for `C[C@]12CCC(=O)C=C1CC[C@@H]1[C@@H]2CC[C@]2(C)C(=O)/C(=C/c3ccncc3)C[C@@H]12`, the GI50 with A549 is 16.4 µM (inactive); with COLO 205, 13.2 µM (inactive); in the experiment on DU-145, 14.5 µM (inactive); with HCC 2998, 16.7 µM (inactive); in the experiment on Hs-578T it was 29.8 µM (inactive); with KM12 it was 13.4 µM (inactive). In addition, the GI50 in the experiment with LOX IMVI was 15.7 µM (inactive); with MCF7 it was 11.5 µM (inactive); in the experiment on MDA-MB-231 it was 15.2 µM (inactive); with NCI-H226, 16.9 µM (inactive); with OVCAR-5, 16.9 µM (inactive); in the experiment on OVCAR-8, 23.3 µM (inactive). Besides, the GI50 in the experiment on RXF 393 is 15.6 µM (inactive); in the experiment with SK-MEL-28, 20 µM (inactive); with SK-MEL-2 it was 14.5 µM (inactive); with SK-MEL-5, 8.97 µM (inactive); in the experiment on SNB-19, 13.2 µM (inactive); in the experiment with SR it was 4.75 µM (inactive). In addition, the GI50 in the experiment on TK-10 was 18.1 µM (inactive).

Consider `c1ccc2c(c1)cc1n2CCc2c-1[nH]c1ccccc21`, for which the GI50 in the experiment on A549, in the experiment on COLO 205, in the experiment on DU-145, with HCC 2998, with Hs-578T and in the experiment with KM12 was > 10 µM (inactive) throughout. Besides, the GI50 in the experiment on LOX IMVI, in the experiment on MCF7, in the experiment with MDA-MB-231, with NCI-H226, in the experiment on OVCAR-5 and with OVCAR-8 was > 10 µM (inactive) each time. For the same compound, the GI50 in the experiment on RXF 393, with SK-MEL-28, in the experiment on SK-MEL-2, in the experiment with SK-MEL-5, in the experiment with SNB-19 and in the experiment with SR was > 10 µM (inactive) throughout. For the same compound, in the experiment on TK-10, the GI50 was > 10 µM (inactive).

Regarding `NC(=O)CNC(=O)C1CCCN1C(=O)C1CCCCNOC(=O)CCC(NC(=O)OCC2c3ccccc3-c3ccccc32)C(=O)NC(Cc2c[nH]c3ccccc23)C(=O)N1` (configuration not stated) (Fmoc-EW[X36]PG-NH2; ester 1-3; configuration not given here), the GI50 in the experiment with A549, with COLO 205, in the experiment with DU-145, in the experiment with HCC 2998, with Hs-578T and in the experiment on KM12 was > 100 µM (inactive) each time. For the same compound, the GI50 was > 100 µM (inactive) in the experiment with LOX IMVI; 47.9 µM (inactive) in the experiment on MCF7; 15.2 µM (inactive) with MDA-MB-231; > 100 µM (inactive) in the experiment with NCI-H226; > 100 µM (inactive) in the experiment on OVCAR-5; > 100 µM (inactive) with OVCAR-8. In addition, the GI50 in the experiment on RXF 393, with SK-MEL-28, with SK-MEL-2, with SK-MEL-5, in the experiment with SNB-19 and in the experiment on SR was > 100 µM (inactive) each time. The GI50 with TK-10 is > 100 µM (inactive).

As to `Cc1ccc(O)c(C(=O)/C=C/c2ccccc2)c1`, the GI50 with A549 was > 100 µM (inactive); in the experiment on COLO 205, > 100 µM (inactive); in the experiment with DU-145, > 100 µM (inactive); with HCC 2998, > 100 µM (inactive); in the experiment with Hs-578T, 78 µM (inactive); in the experiment on KM12, 1.37 µM (inactive). The GI50 in the experiment on LOX IMVI, with MCF7, in the experiment with MDA-MB-231, with NCI-H226, with OVCAR-5 and in the experiment with OVCAR-8 was > 100 µM (inactive) in each case. The GI50 with RXF 393, in the experiment on SK-MEL-28, in the experiment with SK-MEL-2, in the experiment on SK-MEL-5, with SNB-19 and with SR was > 100 µM (inactive) throughout. For the same compound, the GI50 in the experiment on TK-10 was > 100 µM (inactive).
